What was measured:
[1] = target: T1, RORγ-LBD (Homo sapiens, UniProt P51449); experiment: RORγ-Ligand Binding Domain (LBD) TR-FRET Assay; type: biochemical; conditions: for TR-FRET Assay Max Response: maximum response;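 for TR-FRET Assay Max Response: 665/615 nm signal ratio set to 100 without ursolic acid or test compound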
T1 construct: made in house; host or cells: SF9 cells (baculovirus); used as diluted lysate
T1 sequence (P51449 269-508 limits assumed): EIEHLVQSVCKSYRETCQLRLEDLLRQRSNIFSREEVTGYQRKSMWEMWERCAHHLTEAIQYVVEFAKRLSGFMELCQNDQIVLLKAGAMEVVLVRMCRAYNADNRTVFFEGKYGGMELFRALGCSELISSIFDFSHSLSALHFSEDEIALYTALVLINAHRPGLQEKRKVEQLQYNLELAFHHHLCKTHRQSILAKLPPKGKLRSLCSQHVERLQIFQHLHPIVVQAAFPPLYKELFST
Procedure, shortened: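 Lysate from SF9 cells expressing His-RORγ-LBD is diluted to about 3 nM final in 50 mM Tris pH 7.0 assay buffer. A biotin-tagged SRC1 LXXLL peptide goes in at 200 nM final, plus ursolic acid at 2 μM final. Test compounds carry 1% DMSO final; signal read by TR-FRET.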

[2] = target: T2, Gal4-RORγ-LBD (Homo sapiens, UniProt P51449); experiment: Gal4-RORγ Luciferase Reporter Assay in HEK-293T Cells; type: cell-based; conditions: HEK-293 cells; for Gal4-RORγ Assay Max Response: maximum response
T2 construct: expressed in transfected cells
T2 sequence (P51449 269-508 limits assumed): T1 sequence (P51449 269-508 limits assumed)
Procedure, shortened: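 Max Response was taken as the upper plateau of a 4-parameter logistic fit of luciferase signal, normalized to 100 for wells without ursolic acid or compound. Transiently Gal4-RORγ-LBD/Gal4-luc transfected HEK-293 cells carrying […] ursolic acid were incubated with test compounds (0.2% DMSO) overnight at 37 °C and read with One-Glo.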

[3] = luciferase reporter, with ursolic acid
[4] = luciferase reporter, in presence of ursolic acid

EC50 ([1]; RORγ-LBD TR-FRET) | EC50 [2, 3] | SMILES | other results
< 500 nM | < 500 nM | CCOc1nn(CC)cc1S(=O)(=O)N1C[C@H](CCC(=O)OC)Oc2ccc(/C=C/c3c(Cl)cccc3C(F)(F)F)cc21 [Example 89DP, methyl (S,E)-3-(6-(2-chloro-6-(trifluoromethyl)styryl)-4-((3-ethoxy-1-ethyl-1H-pyrazol-4-yl)sulfonyl)-3,4-dihydro-2H-benzo[b][1,4]oxazin-2-yl)propanoate] | –
< 500 nM | < 500 nM | CCOc1ncc(C(F)(F)F)cc1S(=O)(=O)N1C[C@H](CCC(=O)OC)Oc2ccc(/C=C/c3c(Cl)cccc3C(C)(F)F)cc21 [Example 89FH, methyl (S,E)-3-(6-(2-chloro-6-(1,1-difluoroethyl)styryl)-4-((2-ethoxy-5-(trifluoromethyl)-pyridin-3-yl)sulfonyl)-3,4-dihydro-2H-benzo[b][1,4]-oxazin-2-yl)propanoate] | –
– | – | C/C(=C\c1ccc2c(c1)N(S(=O)(=O)c1cccc(C(F)(F)F)c1)C[C@H](CCNC(=O)C1CC1)O2)c1c(F)cccc1Cl [Example 113, (S,E)-N-(2-(6-(2-(2-Chloro-6-fluorophenyl)prop-1-en-1-yl)-4-((3-(trifluoromethyl)phenyl)sulfonyl)-3,4-dihydro-2H-benzo[b][1,4]oxazin-2-yl)ethyl)cyclopropanecarboxamide] | EC50 ([1]; RORγ-LBD TR-FRET assay): < 500 nM; TR-FRET Assay Max Response ([1]; RORγ-LBD TR-FRET assay): *** (a value in the range of greater than 150 to 200); EC50 [2, 4]: < 500 nM; Gal4-RORγ Assay Max Response [2, 4]: ** (a value in the range of greater than 90 to 150)
< 500 nM | > 10000 nM | CCOc1nn(CC)cc1S(=O)(=O)N1C[C@H](CCC(=O)O)Oc2ccc(/C=C/c3cccs3)cc21 [Example 89O, (S,E)-3-(4-((3-ethoxy-1-ethyl-1H-pyrazol-4-yl)sulfonyl)-6-(2-(thiophen-2-yl)vinyl)-3,4-dihydro-2H-benzo[b][1,4]oxazin-2-yl)propanoic acid] | –
< 500 nM | < 500 nM | C/C(=C\c1ccc2c(c1)N(S(=O)(=O)c1cccc(C(F)(F)F)c1)C[C@H](CCC(=O)O)O2)c1ccccc1C(F)(F)F [Example 86AG, (S,E)-3-(6-(2-(2-(trifluoromethyl)-phenyl)prop-1-en-1-yl)-4-((3-(trifluoromethyl)phenyl)sulfonyl)-3,4-dihydro-2H-benzo[b][1,4]-oxazin-2-yl)propanoic acid] | –
< 500 nM | < 500 nM | COC(=O)CC[C@H]1CN(S(=O)(=O)c2c(OC)nn3c2CCCC3)c2cc(/C=C(\C)c3c(F)cccc3Cl)ccc2O1 [Example 86L, (S,E)-methyl 3-(6-(2-(2-chloro-6-fluorophenyl)prop-1-en-1-yl)-4-((2-methoxy-4,5,6,7-tetrahydropyrazolo[1,5-a]pyridin-3-yl)-sulfonyl)-3,4-dihydro-2H-benzo[b][1,4]oxazin-2-yl)-propanoate] | –
– | – | COc1cc(S(=O)(=O)C2CC(CCC(=O)O)Oc3ccc(/C=C(\C)c4c(F)cccc4Cl)cc32)ccc1F (centres unmarked) [Example 186G, (E)-3-(6-(2-(2-chloro-6-fluorophenyl)prop-1-en-1-yl)-4-((4-fluoro-3-methoxyphenyl)-sulfonyl)chroman-2-yl)propanoic acid] | EC50 ([1]; RORγ-LBD TR-FRET assay): < 500 nM; TR-FRET Assay Max Response ([1]; RORγ-LBD TR-FRET assay): ** (a value in the range of greater than 90 to 150); EC50 [2, 4]: 500 to 5000 nM; Gal4-RORγ Assay Max Response [2, 4]: ** (a value in the range of greater than 90 to 150)
< 500 nM | 500 to 5000 nM | O=C(O)CC[C@H]1CN(S(=O)(=O)c2cccc(OC(F)F)c2)c2cc(/C=C/c3ncccc3Cl)ccc2O1 [Example 89DT, (S,E)-3-(6-(2-(3-chloropyridin-2-yl)vinyl)-4-((3-(difluoromethoxy)phenyl)sulfonyl)-3,4-dihydro-2H-benzo[b][1,4]-oxazin-2-yl)propanoic acid] | –
< 500 nM | < 500 nM | CCOc1nn(CC)cc1S(=O)(=O)N1C[C@H](CCC(=O)OC)Oc2ccc(/C=C(\C)c3c(F)cccc3Cl)cc21 [Example 86J, (S,E)-methyl 3-(6-(2-(2-chloro-6-fluorophenyl)prop-1-en-1-yl)-4-((3-ethoxy-1-ethyl-1H-pyrazol-4-yl)sulfonyl)-3,4-dihydro-2H-benzo[b][1,4]oxazin-2-yl)propanoate] | –
– | – | O=C(O)C1CN(C(=O)CC[C@H]2CN(S(=O)(=O)c3cccc(C(F)(F)F)c3)c3cc(/C=C/c4c(Cl)cccc4C(F)(F)F)ccc3O2)C1 [Example 129G, (S,E)-1-(3-(6-(2-chloro-6-(trifluoromethyl)styryl)-4-((3-(trifluoromethyl)-phenyl)sulfonyl)-3,4-dihydro-2H-benzo[b][1,4]oxazin-2-yl)propanoyl)azetidine-3-carboxylic acid] | EC50 ([1]; RORγ-LBD TR-FRET assay): < 500 nM; TR-FRET Assay Max Response ([1]; RORγ-LBD TR-FRET assay): **** (a value greater than 200); EC50 [2, 4]: < 500 nM; Gal4-RORγ Assay Max Response [2, 4]: ** (a value in the range of greater than 90 to 150)
– | – | COC(=O)CCC[C@H]1CN(S(=O)(=O)c2cc(C(F)(F)F)cnc2OCCO)c2cc(/C=C/c3c(F)cccc3Cl)ccc2O1 [Example 195C, methyl (S,E)-4-(6-(2-chloro-6-fluorostyryl)-4-((2-(2-hydroxyethoxy)-5-(trifluoro-methyl)pyridin-3-yl)sulfonyl)-3,4-dihydro-2H-benzo[b][1,4]-oxazin-2-yl)butanoate] | EC50 ([1]; with 2 μM ursolic acid (RORγ antagonist), highest test concentration 10 μM): < 500 nM; EC50 ([2]; ursolic acid present, luciferase readout): 500 to 5000 nM
< 500 nM | < 500 nM | CCOC(=O)[C@@H]1Cc2ccc(OC3CCc4ccccc43)cc2N(S(=O)(=O)c2ccc(F)c(OC)c2)[C@@H]1C (mixture of isomers) [Example 20, (2R,3R)-Ethyl 7-((2,3-dihydro-1H-inden-1-yl)oxy)-1-((4-fluoro-3-methoxyphenyl)sulfonyl)-2-methyl-1,2,3,4-tetrahydroquinoline-3-carboxylate] | –
– | – | C/C(=C\c1ccc2c(c1)N(S(=O)(=O)c1cccc(C(F)(F)F)c1)C[C@H](N)C2)c1c(F)cccc1Cl [Example 164, (R,E)-7-(2-(2-Chloro-6-fluorophenyl)prop-1-en-1-yl)-1-((3-(trifluoromethyl)phenyl)sulfonyl)-1,2,3,4-tetrahydroquinolin-3-amine] | EC50 ([1]; RORγ-LBD TR-FRET assay): < 500 nM; EC50 [2, 4]: 500 to 5000 nM
< 500 nM | < 500 nM | CCOc1nn(CC)cc1S(=O)(=O)N1C[C@H](CCC(=O)O)Oc2ccc(/C=C(\C)c3c(Cl)cccc3C(F)(F)F)cc21 [Example 86AW, (S,E)-3-(6-(2-(2-chloro-6-(trifluoromethyl)phenyl)prop-1-en-1-yl)-4-((3-ethoxy-1-ethyl-1H-pyrazol-4-yl)sulfonyl)-3,4-dihydro-2H-benzo[b][1,4]oxazin-2-yl)propanoic acid] | –
< 500 nM | 500 to 5000 nM | COc1cccnc1/C=C/c1ccc2c(c1)N(S(=O)(=O)c1cccc(C(F)(F)F)c1)C[C@H](CCC(=O)O)O2 [Example 89DK, (S,E)-3-(6-(2-(3-methoxypyridin-2-yl)vinyl)-4-((3-(trifluoromethyl)phenyl)-sulfonyl)-3,4-dihydro-2H-benzo[b][1,4]oxazin-2-yl)propanoic acid] | –
< 500 nM | 500 to 5000 nM | CCOc1ncc(C(F)(F)F)cc1S(=O)(=O)N1C[C@H](CCC(=O)O)Oc2ccc(/C=C/c3c(F)cccc3Cl)cc21 [Example 89DU, (S,E)-3-(6-(2-chloro-6-fluorostyryl)-4-((2-ethoxy-5-(trifluoromethyl)pyridin-3-yl)sulfonyl)-3,4-dihydro-2H-benzo[b][1,4]oxazin-2-yl)propanoic acid] | –
